This is an account of results in US10392404B2, “Compounds and compositions as kinase inhibitors” (NOVARTIS AG, priority 2014, dated 2019).

In test [1] the target is T1, b-Raf (V600E) (Homo sapiens, UniProt P15056, V600E).
T1 construct: made in house
Description: In vitro Raf activity determination (Alpha Screen, biotinylated kinase-dead MEK1 substrate), B-Raf. It counts as biochemical. The settings on record: b-Raf (V600E) approximately 4 pM; ATP 10 μM; pre-incubation 60 minutes; reaction 3 hours at room temperature. In a few lines: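 IC50 from non-linear regression of AlphaScreen phospho-MEK signal (anti-p-MEK1/2 antibody). b-Raf(V600E), about 4 pM, phosphorylated ~10 nM biotinylated K97R MEK1 with 10 μM ATP for 3 h at room temperature after 60 min compound pre-incubation; buffer pH 7.5 Tris, 15 mM MgCl2, 1 mM DTT.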

For test [2], the target named is T2, C-RAF (Homo sapiens, UniProt P04049, Y340E/Y341E).
T2 construct: His tag (implied by nickel chromatography) (cleaved yes); StrepII tag (cleaved yes); made in house; host or cells: Sf9 insect cells (baculovirus), CRAF and h14-3-3 zeta co-expressed; MEK1 substrate from E. coli
Nature of the test: In vitro Raf activity determination (Alpha Screen, biotinylated kinase-dead MEK1 substrate), C-Raf. The settings on record: c-Raf approximately 4 nM; ATP 1 μM; pre-incubation 60 minutes; reaction 1 hour at room temperature. Format: biochemical. The method, boiled down:
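AlphaScreen read-out of MEK phosphorylation using an anti-phospho-MEK1/2 antibody after a 1 hour room-temperature reaction at 1 μM ATP. Enzyme: approximately 4 nM Sf9-expressed full-length activated C-Raf (Y340E/Y341E, with 14-3-3ζ) on approximately 10 nM biotinylated K97R MEK1, after 60 min compound preincubation. IC50 by non-linear fit.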

SMILES strings stand for the structures.

T1 sequence (P15056 whole entry V600E): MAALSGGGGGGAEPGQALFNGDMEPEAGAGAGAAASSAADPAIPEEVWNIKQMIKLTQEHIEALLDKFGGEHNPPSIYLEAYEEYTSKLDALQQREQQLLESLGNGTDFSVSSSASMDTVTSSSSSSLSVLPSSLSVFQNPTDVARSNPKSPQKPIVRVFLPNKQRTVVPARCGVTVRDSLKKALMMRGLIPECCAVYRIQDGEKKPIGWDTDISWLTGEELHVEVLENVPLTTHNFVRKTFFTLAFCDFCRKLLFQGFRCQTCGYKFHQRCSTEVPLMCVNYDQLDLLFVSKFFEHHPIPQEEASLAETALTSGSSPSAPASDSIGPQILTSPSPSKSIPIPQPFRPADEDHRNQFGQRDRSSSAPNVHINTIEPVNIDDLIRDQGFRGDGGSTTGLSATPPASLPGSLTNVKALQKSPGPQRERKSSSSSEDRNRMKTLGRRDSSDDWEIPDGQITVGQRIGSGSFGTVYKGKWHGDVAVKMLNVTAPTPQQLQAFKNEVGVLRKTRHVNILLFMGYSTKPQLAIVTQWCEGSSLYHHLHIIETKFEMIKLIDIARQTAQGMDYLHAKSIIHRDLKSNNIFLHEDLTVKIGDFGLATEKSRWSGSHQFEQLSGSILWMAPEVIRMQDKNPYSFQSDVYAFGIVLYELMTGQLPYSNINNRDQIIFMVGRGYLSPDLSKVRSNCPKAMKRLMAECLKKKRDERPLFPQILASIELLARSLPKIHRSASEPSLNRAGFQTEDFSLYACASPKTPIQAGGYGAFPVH
T2 sequence (P04049 whole entry Y340E/Y341E): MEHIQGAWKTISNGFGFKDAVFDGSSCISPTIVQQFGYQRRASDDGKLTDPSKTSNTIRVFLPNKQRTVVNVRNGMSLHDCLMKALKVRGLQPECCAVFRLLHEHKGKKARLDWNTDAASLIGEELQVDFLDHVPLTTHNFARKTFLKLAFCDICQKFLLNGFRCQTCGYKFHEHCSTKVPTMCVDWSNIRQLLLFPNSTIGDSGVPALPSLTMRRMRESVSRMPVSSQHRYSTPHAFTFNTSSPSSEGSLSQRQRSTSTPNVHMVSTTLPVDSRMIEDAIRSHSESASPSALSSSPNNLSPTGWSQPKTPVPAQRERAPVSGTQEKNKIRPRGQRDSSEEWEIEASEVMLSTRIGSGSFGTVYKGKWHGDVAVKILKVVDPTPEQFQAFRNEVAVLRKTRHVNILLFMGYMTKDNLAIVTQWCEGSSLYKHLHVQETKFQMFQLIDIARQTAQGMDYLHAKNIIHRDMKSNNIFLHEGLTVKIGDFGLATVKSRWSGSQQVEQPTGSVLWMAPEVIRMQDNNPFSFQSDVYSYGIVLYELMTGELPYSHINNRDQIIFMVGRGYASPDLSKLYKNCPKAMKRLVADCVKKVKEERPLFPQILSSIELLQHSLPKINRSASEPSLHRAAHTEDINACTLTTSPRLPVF
T2 sequence (P63104 whole entry partner): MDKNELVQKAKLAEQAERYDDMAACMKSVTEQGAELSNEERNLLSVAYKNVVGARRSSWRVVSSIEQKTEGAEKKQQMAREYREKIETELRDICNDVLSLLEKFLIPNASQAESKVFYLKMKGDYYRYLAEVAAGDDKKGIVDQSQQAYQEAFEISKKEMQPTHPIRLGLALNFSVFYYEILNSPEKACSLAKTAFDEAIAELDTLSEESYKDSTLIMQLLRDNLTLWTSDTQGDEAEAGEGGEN

As for `CCn1cc(C(=O)Nc2ccc(C)c(-c3cnc(N4CC(C)(O)C4)c(C#N)c3)c2)cc(C(F)(F)F)c1=O` [Example 221, N-(3-(5-cyano-6-(3-hydroxy-3-methylazetidin-1-yl)pyridin-yl)-4-methylphenyl)-1-ethyl-6-oxo-5-(trifluoromethyl)-1,6-dihydropyridine-3-carboxamide], the IC50 (in general, the concentration that gives 50% inhibition) in test [1] is 3.65 nM; in test [2], 0.591 nM.
As for `Cc1ncc(NC(=O)c2ccnc(C(C)(C)C#N)c2)cc1-c1cnc(-c2ccc(=O)n(C)c2)c(C#N)c1` [Example 105, N-(3′-cyano-1,2″- dimethyl-6-oxo-1,6-dihydro-[3,2′:5′,3″- terpyridin]-5″-yl)-2-(2-cyanopropan-2-yl)isonicotinamide], the IC50 in test [1] came out at 18 nM; in test [2], 2.75 nM.
The like results for `Cc1ncc(NC(=O)c2ccnc(C(F)(F)F)c2)cc1-c1cnc(N2CCS(=O)(=O)CC2)c(C#N)c1` [Example 86, N-(5′-cyano-6′-(1,1-dioxidothiomorpho-lino)-2-methyl-[3,3′-bipyridin]-5-yl)-2-(trifluoromethyl) isonicotinamide] were, in that order, 2.98 nM and 0.438 nM.
For `Cc1ncc(NC(=O)c2ccnc(C(C)(C)C#N)c2)cc1-c1cnc(N2CCO[C@@H](C)C2)c(C#N)c1` [Example 74, (S)-N-(5′-cyano-2-methyl-6′-(2-methylmorpholino)-[3,3′-bipyridin]-5-yl)-2-(2-cyanopropan-2-yl)isonicotinamide], the IC50 came to 5.54 nM in test [1] and 1.64 nM in test [2].
The like results for `Cc1nn(C)cc1C(=O)Nc1cnc(C)c(-c2cnc(N(C)C)c(C#N)c2)c1` [Example 264, N-(5′-cyano-6′-(dimethylamino)-2-methyl-[3,3′-bipyridin]-5-yl)-1,3-dimethyl-1H-pyrazole-4-carboxamide] were, in that order, 1970 nM and 148 nM.
As for `Cc1ccc(NC(=O)c2ccnc(C(C)(C)C#N)c2)cc1-c1cnc(NC2CC2)c(C#N)c1` [Example 19, N-(3-(5-cyano-6-(cyclopropylamino)pyridin-3-yl)-4-methylphenyl)-2-(2-cyanopropan-2-yl)isonicotinamide], the concentration for half-maximal inhibition (IC50) in test [1] is 2.15 nM; in test [2] it was 0.397 nM.
Regarding `Cc1ccc(NC(=O)c2ccnc(C(C)(C)O)c2)cc1-c1cnc(N(C)C)c(C#N)c1` [Example 256, N-(3-(5-cyano-6-(dimethylamino)pyrdin-3-yl)-4-methylphenyl)-2-(2-hydroxypropan-2-yl)isonicotinamide], the 50% inhibitory concentration (IC50) worked out at 1.52 nM in test [1] and 0.353 nM in test [2].
For the compound `Cc1ncc(NC(=O)c2cc(C(C)(C)O)ccn2)cc1-c1cnc(N2CC(C)(O)C2)c(C#N)c1` [Example 235, N-(5′-cyano-6′-(3-hydroxy-3-methylazetidin-1-yl)-2-methyl-[3,3′-bipyridin]-5-yl)-4-(2-hydroxypropan-2-yl)picolinamide], the IC50 is 27.9 nM in test [1] and 5.8 nM in test [2].
For `Cc1ncc(NC(=O)c2cc(C(F)(F)F)ccn2)cc1-c1cnc(N2CC(C)(O)C2)c(C#N)c1` [Example 225, N-(5′-cyano-6′-(3-hydroxy-3-methylazetidin-1-yl)-2-methyl-[3,3′-bipyridin]-5-yl)-4-(trifluoromethyl) picolinamide], the IC50 is 5 nM in test [1] and 1.08 nM in test [2].
`CCn1cc(C(=O)Nc2ccc(C)c(-c3cnc(N(C)C)c(C#N)c3)c2)c(C)n1` [Example 251, N-(3-(5-cyano-6-(dimethylamino)pyridin-3-yl)-4-methylphenyl)-1-ethyl-3-methyl-1H-pyrazole-4-carboxamide]: the IC50 turned out to be 59.7 nM in test [1] and 7.28 nM in test [2].
Take `Cc1ccc(NC(=O)c2ccnc(C(F)(F)F)c2)cc1-c1cnc(N(C)C)c(C#N)c1` [Example 25, N-(3-(5-cyano-6-(dimethylamino)pyridin-3-yl)-4-methylphenyl)-2-(trifluoromethyl) isonicotinamide]: the IC50 in test [1] was 0.9 nM; in test [2] it was 0.127 nM.
Consider `Cc1ccc(NC(=O)c2ccnc(C(C)(F)F)c2)cc1-c1cnc(N2CCNCC2)c(C#N)c1` [Example 161, N-(3-(5-cyano-6-(piperazin-1-yl)pyridin-3-yl)-4-methylphenyl)-2-(1,1-difluoroethyl) isonicotinamide], for which the 50% inhibitory concentration (IC50) in test [1] is 0.577 nM; in test [2], 0.153 nM.
On to `Cc1cc(CC(=O)Nc2cnc(C)c(-c3cnc(N(C)C)c(C#N)c3)c2)on1` [Example 268, N-(5′-cyano-6′-(dimethylamino)-2-methyl-[3,3′-bipyridin]-5-yl)-2-(3-methylisoxazol-5-yl)acetamide], for which the results for the IC50 in test [1] and in test [2] were 94.2 nM and 8 nM, respectively.
Turning to `Cc1ccc(NC(=O)c2cccc(S(C)(=O)=O)c2)cc1-c1cnc(C2CCOCC2)c(C#N)c1` [Example 139, N-(3-(5-cyano-6-(tetrahydro-2H-pyran-4-yl)pyridin-3-yl)-4-methylphenyl)-3-(methylsulfonyl) benzamide], the concentration for half-maximal inhibition (IC50) in test [1] turned out to be 2.4 nM; in test [2], 0.377 nM.
Take `Cc1ccc(NC(=O)c2ccnc(C(F)(F)F)c2)cc1-c1cnc(C(C)C)c(C#N)c1` [Example 121, N-(3-(5-cyano-6-isopropylpyridin-3-yl)-4-methylphenyl)-2-(trifluoromethyl) isonicotinamide]: the IC50 in test [1] came out at 0.871 nM; in test [2], 0.307 nM.
Consider `Cc1ncc(NC(=O)c2cccc(C(F)(F)F)c2)cc1-c1cnc(C2CCOCC2)c(C#N)c1` [Example 128], for which the IC50 in test [1] came out at 1.34 nM; in test [2], 0.202 nM.
For `Cc1ncc(NC(=O)c2cnnc(C3CC3)c2)cc1-c1cnc(N2CC(C)(O)C2)c(C#N)c1` [Example 190, N-(5′-cyano-6′-(3-hydroxy-3-methylazetidin-1-yl)-2-methyl-[3,3′-bipyridin]-5-yl)-6-cyclopropyl-pyridazine-4-carboxamide], the results for the IC50 in test [1] and in test [2] were 178 nM and 29.1 nM, respectively.
Regarding `Cc1cn(-c2ncc(-c3cc(NC(=O)c4ccnc(C(C)(C)C#N)c4)cnc3C)cc2C#N)cn1` [Example 84, N-(5′-cyano-2-methyl-6′-(4-methyl-1H-imidazol-1-yl)-[3,3′-bipyridin]-5-yl)-2-(2-cyanopropan-2-yl)isonicotinamide], the 50% inhibitory concentration (IC50) was found to be 25.1 nM in test [1] and 5.1 nM in test [2].
Turning to `Cc1ncc(NC(=O)c2cc(C(C)(C)N)cc(C(F)(F)F)c2)cc1-c1cnc(N2CC(C)(O)C2)c(C#N)c1` [Example 247, 3-(2-aminopropan-2-yl)-N-(5′-cyano-6′-(3-hydroxy-3-methylazetidin-1-yl)-2-methyl-[3,3′-bipyridin]-5-yl)-5-(trifluoromethyl) benzamide], the IC50 in test [1] is 30.7 nM; in test [2], 4.96 nM.
`Cc1ccc(NC(=O)c2ccnc(C3CC3)c2)cc1-c1cnc(N2CCOCC2)c(C#N)c1` [Example 155, N-(3-(5-cyano-6-morpholinopyridin-3-yl)-4-methylphenyl)-2-cyclopropyl-isonicotinamide]: the IC50 in test [1] is 0.263 nM; in test [2] it was 0.0395 nM.
Regarding `Cc1ncc(NC(=O)c2ccnc(C(C)(C)C#N)c2)cc1-c1cnc(NC2CCOC2)c(C#N)c1` (stereo in doubt) [Example 78b, (R)-N-(5′-cyano-2-methyl-6′-((tetrahydrofuran-3-yl)amino)-[3,3′-bipyridin]-5-yl)-2-(2-cyanopropan-2-yl)isonicotinamide], the values for the IC50 in test [1] and in test [2] were 10.3 nM and 2.41 nM, respectively.
On to `Cc1ccc(NC(=O)c2cc(C(C)(F)F)ccn2)cc1-c1cnc(N2CC(C)(O)C2)c(C#N)c1` [Example 240, N-(3-(5-cyano-6-(3-hydroxy-3-methylazetidin-1-yl)pyridin-3-yl)-4-methylphenyl)-4-(1,1-difluoroethyl) picolinamide], for which the IC50 in test [1] was 3.51 nM; in test [2] it was 0.519 nM.
`Cc1ccc(NC(=O)c2cc(C(C)(C)C#N)ccn2)cc1-c1cnc(N2CC(C)(O)C2)c(C#N)c1` [Example 232, N-(3-(5-cyano-6-(3-hydroxy-3-methylazetidin-1-yl)pyridin-3-yl)-4-methylphenyl)-4-(2-cyanopropan-2-yl)picolinamide]: the IC50 was found to be 3.18 nM in test [1] and 0.42 nM in test [2].
For `Cc1ccc(NC(=O)c2cc(C(C)(F)F)ccn2)cc1-c1cnc(N2CCOCC2)c(C#N)c1` [Example 241, N-(3-(5-cyano-6-morpholinopyridin-3-yl)-4-methylphenyl)-4-(1,1-difluoroethyl) picolinamide], the IC50 in test [1] came to 1.5 nM; in test [2] it was 0.279 nM.
As for `Cc1ccc(NC(=O)c2ccnc(C(C)(C)C#N)c2)cc1-c1cnc(NC2CCOCC2)c(C#N)c1` [Example 60, N-(3-(5-cyano-6-((tetrahydro-2H-pyran-4-yl)amino)pyridin-3-yl)-4-methylphenyl)-2-(2-cyanopropan-2-yl)isonicotinamide], the half-maximal inhibitory concentration (IC50) in test [1] came to 1.08 nM; in test [2] it was 0.367 nM.
In the case of `Cc1ccc(NC(=O)c2ccnc(C(F)(F)F)c2)cc1-c1cnc(S(C)(=O)=O)c(C#N)c1` [Example 46, N-(3-(5-cyano-6-(methylsulfonyl)pyridin-3-yl)-4-methylphenyl)-2-(trifluoromethyl) isonicotinamide], the IC50 in test [1] turned out to be 10.5 nM; in test [2], 2.11 nM.
